This assay addresses MCH receptor (Homo sapiens, UniProt Q99705). Description: Receptor binding assay with Radiolabelled MCH Ligand. The following applies: class by percent of control at 10^-7 M or IC50. Also noted: expressed in transfected cells; host or cells: 293 cells (human kidney, ATCC), transient transfection; crude membranes. The source says: In addition to the methods described herein, another means for evaluating a test compound is by determining binding affinities to the MCH receptor. This type of assay generally requires a radiolabelled ligand to the MCH receptor. Absent the use of known ligands for the MCH receptor and radiolabels thereof, compounds of Formula (I) can be labelled with a radioisotope and used in an assay for evaluating the affinity of a test compound to the MCH receptor.
A radiolabelled MCH compound of Formula (I) can be used in a screening assay to identify/evaluate compounds. In general terms, a newly synthesized or identified compound (i.e., test compound) can be evaluated for its ability to reduce binding of the “radiolabelled compound of Formula (I)” to the MCH receptor. Accordingly, the ability to compete with the “radio-labelled compound of Formula (I)” or Radiolabelled MCH Ligand for the binding to the MCH receptor directly correlates to its binding affinity of the test compound to the MCH receptor.
293 cells (human kidney, ATCC), transiently transfected with 10 μg human MCH receptor and 60 μl Lipofectamine (per 15-cm dish), are grown in the dish for 24 hours (75% confluency) with a media change and removed with 10 mL/dish of Hepes-EDTA buffer (20 mM Hepes+10 mM EDTA, pH 7.4). The cells are then centrifuged in a Beckman Coulter centrifuge for 20 minutes, 17,000 rpm (JA-25.50 rotor). Subsequently, the pellet is resuspended in 20 mM Hepes+1 mM EDTA, pH 7.4 and homogenized with a 50-mL Dounce homogenizer and again centrifuged. After removing the supernatant, the pellets can be stored at −80° C., until used in binding assay. When used in the assay, membranes are thawed on ice for 20 minutes and then 10 mL of incubation buffer (20 mM Hepes, 1 mM MgCl2, 100 mM NaCl, pH 7.4) added. The membranes are then vortexed to resuspend the crude membrane pellet and homogenized with a Brinkmann PT-3100 Polytron homogenizer for 15 seconds at setting 6. The concentration of membrane protein is determined using the BRL Bradford protein assay.
For total binding, a total volume of 50 ul of appropriately diluted membranes (diluted in assay buffer containing 50 mM Tris HCl (pH 7.4), 1 mM MgCl2, and 1 mM EDTA; 5-50 ug protein) is added to 96-well polyproylene microtiter plates followed by addition of 100 μl of assay buffer and 50 μl of Radiolabelled MCH Ligand. For nonspecific binding, 50 μl of assay buffer is added instead of 100 μl and an additional 50 μl of 10 uM cold MCH is added before 50 μl of Radiolabelled MCH Ligand is added. Plates are then incubated at room temperature for 60-120 minutes. The binding reaction is terminated by filtering assay plates through a Microplate Devices GF/C Unifilter filtration plate with a Brandell 96-well plate harvester followed by washing with cold 50 mM Tris HCl, pH 7.4 containing 0.9% NaCl. Then, the bottom of the filtration plate are sealed, 50 ul of Optiphase Supermix is added to each well, the top of the plates are sealed, and plates are counted in a Trilux MicroBeta scintillation counter. For compound competition studies, instead of adding 100 μl of assay buffer, 100 μl of appropriately diluted test compound is added to appropriate wells followed by addition of 50 μl of Radiolabelled MCH Ligand.
The test compounds are initially assayed at 1 and 0.1 μM and then at a range of concentrations chosen such that the middle dose would cause about 50% inhibition of a Radiolabelled MCH Ligand binding (i.e., IC50). Specific binding in the absence of test compound (BO) is the difference of total binding (BT) minus non-specific binding (NSB) and similarly specific binding (in the presence of test compound) (B) is the difference of displacement binding (BD) minus non-specific binding (NSB). IC50 is determined from an inhibition response curve, logit-log plot of % B/BO vs. concentration of test compound.
Ki is calculated by the Cheng and Prustoff transformation: […]
Chain of MCH receptor (Q99705 whole entry): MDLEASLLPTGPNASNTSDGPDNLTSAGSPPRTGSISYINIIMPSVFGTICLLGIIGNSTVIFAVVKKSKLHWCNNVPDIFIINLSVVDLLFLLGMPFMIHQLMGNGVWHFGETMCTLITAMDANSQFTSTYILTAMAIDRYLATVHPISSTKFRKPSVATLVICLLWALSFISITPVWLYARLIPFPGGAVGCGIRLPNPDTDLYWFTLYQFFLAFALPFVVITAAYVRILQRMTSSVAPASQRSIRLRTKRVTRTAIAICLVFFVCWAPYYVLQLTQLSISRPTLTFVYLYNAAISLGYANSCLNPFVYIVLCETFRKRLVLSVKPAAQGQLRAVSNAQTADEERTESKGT
Take `COc1cc(NC(=O)N[C@H]2CC[C@@H](Nc3cc(N(C)C)nc(C)n3)CC2)cc(OC)c1OC` [compound 425, N-(cis-4-{[6-(dimethylamino)-2-methylpyrimidin-4-yl]amino}cyclohexyl)-N′-(3,4,5-trimethoxyphenyl)urea]: the class was 1 (Class 1: The value of percent of control at 10^−7 M was less than 40% or the value of IC50 was less than 50 nM.).

On to `Cc1nc(N[C@H]2CC[C@@H](NC(=O)OCc3ccc([N+](=O)[O-])cc3)CC2)cc(N(C)C)n1` [compound 460], for which the class is listed as 3 (Class 3: The value of percent of control at 10^−7 M was more than 60% or the value of IC50 was more than 200 nM.).

Take `Cc1nc(N[C@H]2CC[C@@H](NCc3ccno3)CC2)cc(N(C)C)n1` [compound 374]: the class is 3 (Class 3: The value of percent of control at 10^−7 M was more than 60% or the value of IC50 was more than 200 nM.).

On to `Cc1nc(N[C@H]2CC[C@@H](NCCc3ccccc3Br)CC2)cc(N(C)C)n1` [compound 406], for which the class is 3 (Class 3: The value of percent of control at 10^−7 M was more than 60% or the value of IC50 was more than 200 nM.).

Regarding `CCCCCCCOc1ccc(C(=O)N[C@H]2CC[C@@H](Nc3cc(N(C)C)nc(C)n3)CC2)cc1` [compound 251], the class is 3 (Class 3: The value of percent of control at 10^−7 M was more than 60% or the value of IC50 was more than 200 nM.).

`Cc1nc(N[C@H]2CC[C@@H](NC(=O)Nc3c(C)cc(Br)cc3C)CC2)cc(N(C)C)n1` [compound 416, N-(4-bromo-2,6-dimethylphenyl)-N′-(cis-4-{[6-(dimethylamino)-2-methylpyrimidin-4-yl]amino}cyclohexyl)urea]: the class is given as 1 (Class 1: The value of percent of control at 10^−7 M was less than 40% or the value of IC50 was less than 50 nM.).

For `Cc1nc(N[C@H]2CC[C@@H](NC(=O)Nc3c(C)cccc3C(C)(C)C)CC2)cc(N(C)C)n1` [compound 422], the class is given as 2 (Class 2: The value of percent of control at 10^−7 M was from 40% to 60% or the value of IC50 was from 50 nM to 200 nM.).

As to `Cc1nc(N[C@H]2CC[C@@H](NC(=O)C(C)c3ccc(N4Cc5ccccc5C4=O)cc3)CC2)cc(N(C)C)n1` (relative stereo) [compound 286], the class is recorded as 3 (Class 3: The value of percent of control at 10^−7 M was more than 60% or the value of IC50 was more than 200 nM.).

For the compound `Cc1nc(N[C@H]2CC[C@@H](NCCCc3ccccc3)CC2)cc(N(C)C)n1` [compound 403], the class is reported as 3 (Class 3: The value of percent of control at 10^−7 M was more than 60% or the value of IC50 was more than 200 nM.).

As for `Cc1nc(N[C@H]2CC[C@@H](NCc3ccccc3)CC2)cc(N(C)C)n1` [compound 354], the class is recorded as 3 (Class 3: The value of percent of control at 10^−7 M was more than 60% or the value of IC50 was more than 200 nM.).

As to `Cc1nc(N[C@H]2CC[C@@H](NS(=O)(=O)c3cccc(OC(F)(F)F)c3)CC2)cc(N(C)C)n1` [compound 492], the class is 3 (Class 3: The value of percent of control at 10^−7 M was more than 60% or the value of IC50 was more than 200 nM.).

Turning to `CCCCCCCCOC(=O)N[C@H]1CC[C@@H](Nc2cc(N(C)C)nc(C)n2)CC1` [compound 458], the class is 3 (Class 3: The value of percent of control at 10^−7 M was more than 60% or the value of IC50 was more than 200 nM.).

In the case of `Cc1nc(N[C@H]2CC[C@@H](NC(=O)c3ccccc3C(=O)c3sc4ccccc4c3C)CC2)cc(N(C)C)n1` [compound 323], the class was 3 (Class 3: The value of percent of control at 10^−7 M was more than 60% or the value of IC50 was more than 200 nM.).

Turning to `Cc1nc(N[C@H]2CC[C@@H](NCc3cc(C(C)(C)C)nn3Cc3ccc(Cl)cc3Cl)CC2)cc(N(C)C)n1` [compound 409], the class is 3 (Class 3: The value of percent of control at 10^−7 M was more than 60% or the value of IC50 was more than 200 nM.).

Turning to `Cc1nc(N[C@H]2CC[C@@H](NC(=O)Nc3ccc(Br)cc3C)CC2)cc(N(C)C)n1` [compound 420], the class is reported as 3 (Class 3: The value of percent of control at 10^−7 M was more than 60% or the value of IC50 was more than 200 nM.).

With `Cc1nc(N[C@H]2CC[C@@H](NC(=O)c3c(-c4c(F)cccc4Cl)noc3C)CC2)cc(N(C)C)n1` [compound 215, 3-(2-chloro-6-fluorophenyl)-N-(cis-4-{[6-(dimethylamino)-2-methylpyrimidin-4-yl]amino}cyclohexyl)-5-methylisoxazole-4-carboxamide], the class was 1 (Class 1: The value of percent of control at 10^−7 M was less than 40% or the value of IC50 was less than 50 nM.).

In the case of `Cc1ccc(C(=O)c2ccccc2C(=O)N[C@H]2CC[C@@H](Nc3cc(N(C)C)nc(C)n3)CC2)cc1` [compound 330], the class was 3 (Class 3: The value of percent of control at 10^−7 M was more than 60% or the value of IC50 was more than 200 nM.).

As to `Cc1nc(N[C@H]2CC[C@@H](NC(=O)CSCc3ccccc3)CC2)cc(N(C)C)n1` [compound 336], the class was 3 (Class 3: The value of percent of control at 10^−7 M was more than 60% or the value of IC50 was more than 200 nM.).

Take `Cc1cc(C)c(S(=O)(=O)N[C@H]2CC[C@@H](Nc3cc(N(C)C)nc(C)n3)CC2)c(C)c1` [compound 486]: the class was 3 (Class 3: The value of percent of control at 10^−7 M was more than 60% or the value of IC50 was more than 200 nM.).

`Cc1nc(N[C@H]2CC[C@@H](NCc3ccc(F)cc3)CC2)cc(N(C)C)n1` [compound 372]: the class was 3 (Class 3: The value of percent of control at 10^−7 M was more than 60% or the value of IC50 was more than 200 nM.).

`Cc1nc(N[C@H]2CC[C@@H](NS(=O)(=O)c3ccc(Oc4ncc(C(F)(F)F)cc4Cl)cc3)CC2)cc(N(C)C)n1` [compound 497]: the class was 3 (Class 3: The value of percent of control at 10^−7 M was more than 60% or the value of IC50 was more than 200 nM.).

With `Cc1nc(N[C@H]2CC[C@@H](NC(=O)CCCc3ccc4c(c3)OCCO4)CC2)cc(N(C)C)n1` [compound 341], the class is reported as 3 (Class 3: The value of percent of control at 10^−7 M was more than 60% or the value of IC50 was more than 200 nM.).

Consider `Cc1nc(N[C@H]2CC[C@@H](NC(=O)Cc3ccc(Oc4ccccc4)cc3)CC2)cc(N(C)C)n1` [compound 300], for which the class is reported as 3 (Class 3: The value of percent of control at 10^−7 M was more than 60% or the value of IC50 was more than 200 nM.).

In the case of `Cc1nc(N[C@H]2CC[C@@H](NC(=S)Nc3ccc(C#N)cc3)CC2)cc(N(C)C)n1` [compound 450], the class is on record as 3 (Class 3: The value of percent of control at 10^−7 M was more than 60% or the value of IC50 was more than 200 nM.).

Regarding `Cc1nc(N[C@H]2CC[C@@H](NC(=O)c3ccccc3C(=O)c3ccc(F)cc3)CC2)cc(N(C)C)n1` [compound 304], the class is given as 3 (Class 3: The value of percent of control at 10^−7 M was more than 60% or the value of IC50 was more than 200 nM.).

Turning to `COc1cc(NC(=S)N[C@H]2CC[C@@H](Nc3cc(N(C)C)nc(C)n3)CC2)cc(OC)c1OC` [compound 442, N-(cis-4-{[6-(dimethylamino)-2-methylpyrimidin-4-yl]amino}cyclohexyl)-N′-(3,4,5-trimethoxyphenyl)thiourea], the class is 1 (Class 1: The value of percent of control at 10^−7 M was less than 40% or the value of IC50 was less than 50 nM.).

Regarding `COc1ccc(CCN[C@H]2CC[C@@H](Nc3cc(N(C)C)nc(C)n3)CC2)cc1OC` [compound 390], the class is listed as 3 (Class 3: The value of percent of control at 10^−7 M was more than 60% or the value of IC50 was more than 200 nM.).

(Values after US20090036448A1, “PYRIMIDINE DERIVATIVES AND METHODS OF TREATMENT RELATED TO THE USE THEREOF” (TAISHO PHARMECUTICAL CO., LTD., priority 2004, published 2009).)
